From ChEMBL document CHEMBL5143521, “Identification of a selective BRD4 PROTAC with potent antiproliferative effects in AR-positive prostate cancer based on a dual BET/PLK1 inhibitor” (Eur J Med Chem, 2022)
pIC50: −log10 of the molar value. Activity calls are given as the source filed them. The rule behind the calls is not given here.

How the values were obtained:
MV4-11 = experiment: Antiproliferative activity against human MV4-11 cells assessed as reduction in cell viability measured after 4 days by MTT assay; type: functional, cell-based; settings: MV4-11, 96 h
[1] = target: Serine/threonine-protein kinase PLK1 (Homo sapiens, UniProt P53350); experiment: Inhibition of recombinant full length human PLK1 using casein as substrate incubated for 40 mins in presence of [gamma-33P]-ATP by radiometric scintillation counting method
Chain of Serine/threonine-protein kinase PLK1 (P53350 whole entry): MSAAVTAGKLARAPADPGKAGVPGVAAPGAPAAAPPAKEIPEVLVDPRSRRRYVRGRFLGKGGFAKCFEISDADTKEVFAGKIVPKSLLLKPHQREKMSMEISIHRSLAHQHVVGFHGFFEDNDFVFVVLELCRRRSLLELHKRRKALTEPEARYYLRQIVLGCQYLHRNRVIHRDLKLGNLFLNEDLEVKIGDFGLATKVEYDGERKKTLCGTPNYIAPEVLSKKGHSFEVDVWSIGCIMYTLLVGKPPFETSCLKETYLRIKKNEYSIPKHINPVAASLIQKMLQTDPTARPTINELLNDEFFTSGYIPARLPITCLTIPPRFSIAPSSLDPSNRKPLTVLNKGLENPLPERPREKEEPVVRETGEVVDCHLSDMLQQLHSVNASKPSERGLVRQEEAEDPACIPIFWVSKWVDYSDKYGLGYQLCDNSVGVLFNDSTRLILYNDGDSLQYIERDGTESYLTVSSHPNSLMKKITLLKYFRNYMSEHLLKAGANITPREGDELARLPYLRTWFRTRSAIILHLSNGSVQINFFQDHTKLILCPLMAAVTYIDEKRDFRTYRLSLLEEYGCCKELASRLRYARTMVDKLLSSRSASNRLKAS

[2] = target: Bromodomain-containing protein 4 (Homo sapiens, UniProt O60885); experiment: Inhibition of BRD4 (unknown origin) by alpha-screen assay
[3] = target: Protein cereblon/Bromodomain-containing protein 4 (Homo sapiens) (UniProt O60885+Q96SW2); experiment: Protac activity at BRD4/CRBN in human VCaP cells assessed as degradation of BRD4 by measuring downregulation of BRD4 expression level at 10 nM incubated for 24 hrs by immunoblotting analysis; type: cell-based
Chain of Protein cereblon/Bromodomain-containing protein 4 (Homo sapiens) (Q96SW2 whole entry, looked up, other chains not shown): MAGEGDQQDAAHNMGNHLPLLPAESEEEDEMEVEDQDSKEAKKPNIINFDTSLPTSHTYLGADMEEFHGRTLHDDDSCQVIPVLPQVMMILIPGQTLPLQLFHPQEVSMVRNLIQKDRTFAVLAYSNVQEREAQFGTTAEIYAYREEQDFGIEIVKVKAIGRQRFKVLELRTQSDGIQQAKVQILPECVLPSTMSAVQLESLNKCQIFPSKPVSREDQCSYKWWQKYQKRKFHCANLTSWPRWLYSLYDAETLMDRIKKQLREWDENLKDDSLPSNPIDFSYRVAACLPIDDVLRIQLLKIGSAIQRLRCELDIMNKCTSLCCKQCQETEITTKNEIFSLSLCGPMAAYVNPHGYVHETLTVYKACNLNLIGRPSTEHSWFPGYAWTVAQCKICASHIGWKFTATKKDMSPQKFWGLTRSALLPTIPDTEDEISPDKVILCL

VCaP [4] = experiment: Inhibition of c-Myc expression level in human VCap cells at 10 nM incubated for 24 hrs by immunoblotting analysis; type: functional, cell-based
CWR22R [5] = experiment: Induction of cell cycle arrest in AR-positive human 22Rv1 cells assessed as downregulation of cyclin E expression at 1 to 3 uM measured after 72 hrs by Western blot analysis; type: functional, cell-based; settings: dose 1-3 µM
CWR22R [6] = experiment: Antiproliferative activity against AR-positive human 22Rv1 cells assessed as reduction in cell viability measured after 4 days by MTT assay; type: functional, cell-based; settings: 22Rv1, 96 h
VCaP [7] = experiment: Antiproliferative activity against AR-positive human VCaP cells assessed as reduction in cell viability measured after 4 days by MTT assay; type: functional, cell-based; settings: 96 h
CWR22R [8] = experiment: Induction of cell cycle arrest in AR-positive human 22Rv1 cells assessed as downregulation of CDK6 expression at 1 to 3 uM measured after 72 hrs by Western blot analysis; type: functional, cell-based; settings: dose 1-3 µM
CWR22R [9] = experiment: Induction of cell cycle arrest in AR-positive human 22Rv1 cells assessed as accumulation of cells at G2/M phase at 1 to 3 uM measured after 72 hrs by flow cytometry analysis; type: functional, cell-based; settings: dose 1-3 µM
CWR22R [10] = experiment: Induction of cell cycle arrest in AR-positive human 22Rv1 cells assessed as downregulation of cyclin D1 expression at 1 to 3 uM measured after 72 hrs by Western blot analysis; type: functional, cell-based; settings: dose 1-3 µM
PC-3 [11] = experiment: Antiproliferative activity against AR-negative human castration resistant PC-3 cells assessed as reduction in cell viability measured after 4 days by MTT assay; type: functional, cell-based; settings: PC-3, 96 h
DU-145 [12] = experiment: Antiproliferative activity against AR-negative human castration resistant DU-145 cells assessed as reduction in cell viability measured after 4 days by MTT assay; type: functional, cell-based; settings: DU-145, 96 h
LNCaP [13] = experiment: Antiproliferative activity against AR-positive harmone sensitive human LNCaP cells assessed as reduction in cell viability at 1 nM incubated for 3 days followed by compound washout and measured after 8 days; type: functional; settings: 72 h, time 3 day
CWR22R [14] = experiment: Induction of cell cycle arrest in AR-positive human 22Rv1 cells assessed as upregulation of cyclin B1 expression at 1 to 3 uM measured after 72 hrs by Western blot analysis; type: functional, cell-based; settings: dose 1-3 µM
DU-145 [15] = experiment: Antiproliferative activity against negative human castration resistant DU-145 cells assessed as reduction in cell viability at 1 nM incubated for 3 days followed by compound washout and measured after 8 days; type: functional, cell-based; settings: time 3.0 day
CWR22R [16] = experiment: Antiproliferative activity against AR-positive human 22Rv1 cells assessed as reduction in cell viability at 1 nM incubated for 3 days followed by compound washout and measured after 8 days; type: functional; settings: 22Rv1, 72 h, time 3 day
LNCaP [17] = experiment: Antiproliferative activity against AR-positive harmone sensitive human LNCaP cells assessed as reduction in cell viability measured after 4 days by MTT assay; type: functional, cell-based; settings: 96 h
CWR22R [18] = experiment: Inhibition of colony formation in AR-positive human 22Rv1 cells at 1 nM measured after 12 days by crystal violet staining based assay; type: functional, cell-based; settings: time 12.0 day
CWR22R [19] = experiment: Induction of cell cycle arrest in AR-positive human 22Rv1 cells assessed as downregulation of CDK2 expression at 1 to 3 uM measured after 72 hrs by Western blot analysis; type: functional, cell-based; settings: dose 1-3 µM
PC-3 [20] = experiment: Inhibition of colony formation in AR-negative human castration resistant PC-3 cells at 1 nM measured after 12 days by crystal violet staining based assay; type: functional, cell-based; settings: time 12.0 day
DU-145 [21] = experiment: Inhibition of colony formation in AR-negative human castration resistant DU-145 cells at 1 nM measured after 12 days by crystal violet staining based assay; type: functional, cell-based; settings: time 12.0 day

Row | Structure (SMILES) | pIC50 (MV4-11) | pIC50 [1] | pIC50 [2] | also measured
1 | CC[C@@H]1c2nnc(C)n2-c2cnc(Nc3ccc(C(=O)NC4CCN(C(=O)CCCCCOc5cccc6c5C(=O)N(C5CCC(=O)NC5=O)C6=O)CC4)cc3OC)nc2N1CC1CCCCC1 (some centres not stated) | 8.15 | 5.91 | 6.36 | 
2 | CC[C@@H]1c2nnc(C)n2-c2cnc(Nc3ccc(C(=O)NC4CCN(C(=O)CCCCNc5cccc6c5CN(C5CCC(=O)NC5=O)C6=O)CC4)cc3OC)nc2N1CC1CCCCC1 (some centres not stated) | 6.12 | 5.87 | 6.51 | 
3 | CC[C@@H]1c2nnc(C)n2-c2cnc(Nc3ccc(C(=O)NC4CCN(C(=O)CCCCCCC(=O)Nc5cccc6c5CN(C5CCC(=O)NC5=O)C6=O)CC4)cc3OC)nc2N1CC1CCCCC1 (some centres not stated) | 6.17 | 6.19 | 6.72 | 
4 | CC[C@@H]1c2nnc(C)n2-c2cnc(Nc3ccc(C(=O)NC4CCN(CCCCCCCCCOc5cccc6c5C(=O)N(C5CCC(=O)NC5=O)C6=O)CC4)cc3OC)nc2N1CC1CCCCC1 (some centres not stated) | 7.44 | 5.67 | 6.65 | 
5 | CC[C@@H]1c2nnc(C)n2-c2cnc(Nc3ccc(C(=O)NC4CCN(CCCCCCCCCCOc5cccc6c5C(=O)N(C5CCC(=O)NC5=O)C6=O)CC4)cc3OC)nc2N1CC1CCCCC1 (some centres not stated) | 6.82 | 5.25 | 6.55 | 
6 | CC[C@@H]1c2nnc(C)n2-c2cnc(Nc3ccc(C(=O)NC4CCN(C(=O)CCCOc5cccc6c5C(=O)N(C5CCC(=O)NC5=O)C6=O)CC4)cc3OC)nc2N1CC1CCCCC1 (some centres not stated) | 7.74 | 6.10 | 6.13 | 
7 | CC[C@@H]1c2nnc(C)n2-c2cnc(Nc3ccc(C(=O)NC4CCN(CCCCCCCCOc5cccc6c5C(=O)N(C5CCC(=O)NC5=O)C6=O)CC4)cc3OC)nc2N1CC1CCCCC1 (some centres not stated) | 7.07 | 5.29 | 6.46 | 
8 | CC[C@@H]1c2nnc(C)n2-c2cnc(Nc3ccc(C(=O)NC4CCN(C(=O)CCCCCNc5cccc6c5CN(C5CCC(=O)NC5=O)C6=O)CC4)cc3OC)nc2N1CC1CCCCC1 (some centres not stated) | 8.00 | 5.92 | 6.54 | 
9 | CC[C@@H]1c2nnc(C)n2-c2cnc(Nc3ccc(C(=O)NC4CCN(C(=O)CNc5cccc6c5CN(C5CCC(=O)NC5=O)C6=O)CC4)cc3OC)nc2N1CC1CCCCC1 (some centres not stated) | 7.74 | 5.70 | 6.59 | 
10 | CC[C@@H]1c2nnc(C)n2-c2cnc(Nc3ccc(C(=O)NC4CCN(CCCCCCCCCCCOc5cccc6c5C(=O)N(C5CCC(=O)NC5=O)C6=O)CC4)cc3OC)nc2N1CC1CCCCC1 (some centres not stated) | 6.73 | 5.42 | 6.42 | 
11 | CC[C@@H]1c2nnc(C)n2-c2cnc(Nc3ccc(C(=O)NC4CCN(CCCCCCCOc5cccc6c5C(=O)N(C5CCC(=O)NC5=O)C6=O)CC4)cc3OC)nc2N1CC1CCCCC1 (some centres not stated) | 8.10 | 5.90 | 6.68 | Activity [3]: Active; inhibition (VCaP [4]): Active
12 | CC[C@@H]1c2nnc(C)n2-c2cnc(Nc3ccc(C(=O)NC4CCN(CCCCCOc5cccc6c5C(=O)N(C5CCC(=O)NC5=O)C6=O)CC4)cc3OC)nc2N1CC1CCCCC1 (some centres not stated) | 7.68 | 5.95 | 6.82 | 
13 | CC[C@@H]1c2nnc(C)n2-c2cnc(Nc3ccc(C(=O)NC4CCN(C(=O)CCCCOc5cccc6c5C(=O)N(C5CCC(=O)NC5=O)C6=O)CC4)cc3OC)nc2N1CC1CCCCC1 (some centres not stated) | 7.89 | 5.92 | 6.43 | 
14 | CC[C@@H]1c2nnc(C)n2-c2cnc(Nc3ccc(C(=O)NC4CCN(C)CC4)cc3OC)nc2N1CC1CCCCC1 |  |  |  | Activity (CWR22R [5]): Active; pIC50 (CWR22R [6]): 6.24; pIC50 (VCaP [7]): 6.20; Activity (CWR22R [8]): Active; Activity (CWR22R [9]): Active; Activity (CWR22R [10]): Active; pIC50 (PC-3 [11]): 5.85; pIC50 (DU-145 [12]): 5.83; inhibition at 0.001 µM (LNCaP [13]): 100%; Activity (CWR22R [14]): Active; inhibition (DU-145 [15]): Active; inhibition at 0.001 µM (CWR22R [16]): 100%; pIC50 (LNCaP [17]): 5.84; inhibition (CWR22R [18]): Active; Activity (CWR22R [19]): Active; inhibition (PC-3 [20]): Active; inhibition (DU-145 [21]): Active
15 | CC[C@@H]1c2nnc(C)n2-c2cnc(Nc3ccc(C(=O)NC4CCN(CCCCCCOc5cccc6c5C(=O)N(C5CCC(=O)NC5=O)C6=O)CC4)cc3OC)nc2N1CC1CCCCC1 (some centres not stated) | 6.74 | 5.61 | 6.92 | 
16 | CC[C@@H]1c2nnc(C)n2-c2cnc(Nc3ccc(C(=O)NC4CCN(CCCCNC(=O)COc5cccc6c5C(=O)C(C5CCC(=O)NC5=O)C6=O)CC4)cc3OC)nc2N1CC1CCCCC1 (some centres not stated) | 6.44 | 6.51 | 6.66 | 
17 | CC[C@@H]1c2nnc(C)n2-c2cnc(Nc3ccc(C(=O)NC4CCN(C(=O)CCCCCCOc5cccc6c5C(=O)N(C5CCC(=O)NC5=O)C6=O)CC4)cc3OC)nc2N1CC1CCCCC1 (some centres not stated) | 8.00 | 5.74 | 6.18 | 
